According to PubChem BioAssay (NCI):
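GI50 is the concentration that inhibits growth by half. The concentration for full growth arrest is given as TGI.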

Tests used:
Experiment in all cases: DTP human tumour cell line panel, 384-well format
[1] = system: CCRF-CEM leukemia
[2] = system: NCI-H226 lung
[3] = system: ACHN renal
[4] = system: HCT-15 colon
[5] = system: RPMI-8226 leukemia
[6] = system: A549 NSCLC
[7] = system: SNB-19 CNS
[8] = system: NCI/ADR-RES ovarian
[9] = system: UACC-62 melanoma
[10] = system: SR leukemia
[11] = system: NCI-H23 lung
[12] = system: BT-549 breast
[13] = system: SNB-75 CNS
[14] = system: HS 578T breast
[15] = system: SK-MEL-5 melanoma
[16] = system: RXF 393 renal
[17] = system: HCT-116 colon
[18] = system: MOLT-4 leukemia
[19] = system: MALME-3M melanoma
[20] = system: TK-10 renal
[21] = system: SK-MEL-2 melanoma
[22] = system: MDA-MB-435 melanoma
[23] = system: T-47D breast
[24] = system: PC-3 prostate
[25] = system: M14 melanoma
[26] = system: SF-268 CNS
[27] = system: KM12 colon
[28] = system: LOX IMVI melanoma
[29] = system: EKVX NSCLC
[30] = system: HOP-62 NSCLC
[31] = system: NCI-H322M lung
[32] = system: SN12C renal
[33] = system: U251 glioblastoma
[34] = system: OVCAR-4 ovarian
[35] = system: MCF7 breast
[36] = system: NCI-H522 lung
[37] = system: DU-145 prostate
[38] = system: CAKI-1 renal
[39] = system: IGROV1 ovarian
[40] = system: SF-539 CNS
[41] = system: UACC-257 melanoma
[42] = system: NCI-H460 NSCLC
[43] = system: SF-295 CNS
[44] = system: OVCAR-3 ovarian
[45] = system: A498 renal
[46] = system: HT29 colon
[47] = system: MDA-MB-231 breast
[48] = system: OVCAR-8 ovarian
[49] = system: HL-60(TB) leukemia
[50] = system: K-562 leukemia
[51] = system: SK-MEL-28 melanoma
[52] = system: SW-620 colon
[53] = system: COLO 205 colon
[54] = system: MDA-MB-468 breast
[55] = system: OVCAR-5 ovarian
[56] = system: 786-0 renal
[57] = system: HOP-92 NSCLC
[58] = system: HCC-2998 colon
[59] = system: SK-OV-3 ovarian

Nc1ncn([C@H]2CC(O)[C@@H](CO)S2)c(=O)n1 (stereo partly specified)
GI50 [1]: 0.0173 µM | TGI [1]: 0.595 µM | GI50 [2]: 1.71 µM | TGI [2]: 20.7 µM | GI50 [3]: 0.111 µM | TGI [3]: 11.7 µM | GI50 [4]: 1.09 µM | TGI [4]: 22.1 µM | GI50 [5]: 0.622 µM | TGI [5]: 2.68 µM | GI50 [6]: 0.155 µM | TGI [6]: 3.05 µM | GI50 [7]: 0.442 µM | TGI [7]: > 100 µM | GI50 [8]: 0.139 µM | TGI [8]: 1.26 µM | GI50 [9]: 1.23 µM | TGI [9]: 17.3 µM | GI50 [10]: 0.123 µM | TGI [10]: 0.808 µM | GI50 [11]: 0.272 µM | TGI [11]: 1.8 µM | GI50 [12]: 0.619 µM | TGI [12]: 6.52 µM | GI50 [13]: 7.75 µM | TGI [13]: > 74.1 µM | GI50 [14]: 1.58 µM | TGI [14]: 17.9 µM | GI50 [15]: 0.0706 µM | TGI [15]: 1.33 µM | GI50 [16]: 0.839 µM | TGI [16]: 15.1 µM | GI50 [17]: 0.0558 µM | TGI [17]: 5.34 µM | TGI [18]: 0.0144 µM | GI50 [19]: 0.257 µM | TGI [19]: 2.03 µM | GI50 [20]: 4.22 µM | TGI [20]: > 100 µM | GI50 [21]: 0.253 µM | TGI [21]: 0.691 µM | GI50 [22]: 1.12 µM | TGI [22]: > 100 µM | GI50 [23]: 7.69 µM | TGI [23]: > 100 µM | GI50 [24]: 1.27 µM | TGI [24]: > 75.1 µM | GI50 [25]: 2.34 µM | TGI [25]: 17.6 µM | GI50 [26]: 1.24 µM | TGI [26]: 24 µM | GI50 [27]: 0.441 µM | TGI [27]: > 100 µM | GI50 [28]: 0.534 µM | TGI [28]: 3.41 µM | GI50 [29]: 3.16 µM | TGI [29]: > 75.4 µM | GI50 [30]: 0.417 µM | TGI [30]: 5.26 µM | GI50 [31]: 1.32 µM | TGI [31]: > 100 µM | GI50 [32]: 0.251 µM | TGI [32]: > 39.9 µM | GI50 [33]: 1.92 µM | TGI [33]: 24.8 µM | GI50 [34]: 2.61 µM | TGI [34]: > 100 µM | GI50 [35]: 0.256 µM | TGI [35]: > 100 µM | GI50 [36]: 0.0501 µM | TGI [36]: 0.529 µM | GI50 [37]: 0.366 µM | GI50 [38]: 0.266 µM | TGI [38]: 14.7 µM | GI50 [39]: 2.78 µM | TGI [39]: > 100 µM | GI50 [40]: 2.02 µM | TGI [40]: 45 µM | GI50 [41]: 4.76 µM | TGI [41]: 21.4 µM | GI50 [42]: 0.0399 µM | TGI [42]: 0.491 µM | GI50 [43]: 7.65 µM | TGI [43]: > 74.7 µM | GI50 [44]: 0.461 µM | TGI [44]: 7.09 µM | GI50 [45]: 0.146 µM | TGI [45]: 2.65 µM | GI50 [46]: 1.36 µM | TGI [46]: > 77.8 µM | GI50 [47]: 0.251 µM | TGI [47]: 3.42 µM | GI50 [48]: 0.0822 µM | TGI [48]: 2.69 µM | GI50 [49]: 0.114 µM | TGI [49]: 0.573 µM | GI50 [50]: 0.2 µM | TGI [50]: 12.6 µM | GI50 [51]: 0.34 µM | TGI [51]: 2.75 µM | GI50 [52]: 0.377 µM | TGI [52]: 16.2 µM | GI50 [53]: 0.239 µM | TGI [53]: 1.76 µM | GI50 [54]: 0.153 µM | TGI [54]: 0.741 µM | GI50 [55]: 3.19 µM | TGI [55]: > 100 µM | GI50 [56]: 0.178 µM | TGI [56]: 10.9 µM | GI50 [57]: 0.284 µM | TGI [57]: > 100 µM | GI50 [58]: 0.124 µM | TGI [58]: 3.28 µM | GI50 [59]: 1.82 µM | TGI [59]: 33.6 µM
